Data from US20100004222A1, “Amide Derivatives as Ion-Channel Ligands and Pharmaceutical Compositions and Methods of Using the Same” (Renovis, Inc., priority 2006, published 2010).
Like-named read-outs stand apart in the source and are kept apart here.

Columns and labels:
[1] = Pharmacokinetic evaluation following intravenous and oral administration in rats; format: in vivo; settings: male, Sprague-Dawley, plasma, rat; for bioavailability: AUCinf (PO)/AUCinf (IV), dose normalized, PO 5 mg/kg, read-out: Oral Bioavailability F (%); for clearance: non-compartmental analysis, read-out: In vivo Clearance (converted)
Procedure: Male Sprague-Dawley rats are acclimatized for at least 24 hours prior to experiment initiation. During acclimation period, all animals receive food and water ad libitum. However, food but not water is removed from the animal's cages at least 12 hours before initiation of the experiment. During the first 3 hours of experimentation, the animals receive only water ad libitum. At least three animal each are tested for intravenous and oral dosage. For intravenous formulation, compounds were dissolved (0.25 to 1 mg/mL) in a mixture of 3% dimethyl sulfoxide, 40% PEG 400 and the rest percentage of 40% Captisol in water (w/v). For oral formulation, compounds of this invention are dissolved (2 mg/mL) in a mixture of 5% of 10% Tween 80 in water (v/v) and 95% of 0.5% methyl cellulose in water (w/v). The animals are weighed before dosing. The determined body weight is used to calculate the dose volume for each animal.
Dose volume(mL/kg)=1 mg/kg/formulation concentration(mg/mL)
In instances where the formulation concentrations were less than 0.5 mg/mL, the dosing volume is about 2 mL/kg. PO rats are typically dosed through oral gavage at 2.5 mL/kg to achieve a dose level of 5 mg/kg. For IV dosing, blood samples are collected (using a pre-heparinized syringe) via the jugular vein catheter at 2, 5, 15, 30, 60, 120, 180, 300, 480, and 1440 minutes post dosing. For PO dosing, blood samples are collected (using a pre-heparinized syringe) via the jugular vein catheter before dosing and at 5, 15, 30, 60, 120, 180, 300, 480, and 1440 minutes post dosing. About 250 uL of blood is obtained at each time point from the animal. Equal volumes of 0.9% normal saline are replaced to prevent dehydration. The whole blood samples are maintained on ice until centrifugation. Blood samples are then centrifuged at 14,000 rpm for 10 minutes at 4° C. and the upper plasma layer transferred into a clean vial and stored at −80° C. The resulting plasma samples are then analyzed by liquid chromatography-tandem mass spectrometry. Following the measurement of plasma samples and dosing solutions, plasma concentration-time curve is plotted. Plasma exposure is calculated as the area under the concentration-time curve extrapolated to time infinite (AUCinf). The AUCinf is averaged and the oral bioavailability (% F) for individual animal is calculated as:
AUCinf (PO)/AUCinf (IV), normalized to their respective dose levels. The % F is reported as the mean % F of all animals dosed orally with the compound of the invention at the specified level (Table 6).
In vivo clearance in the rat was calculated by conducting a non-compartmental analysis of the pharmacokinetic profile using WinNonlin software.

[2] = Half-life in human liver microsomes (HLM); format: in vitro ADME; settings: pH 7.4, 1 μM compound, 0.78 mg/mL HLM, 37° C.
Procedure: Test compounds (1 μM) are incubated with 3.3 mM MgCl2 and 0.78 mg/mL HLM (HL101) in 100 mM potassium phosphate buffer (pH 7.4) at 37° C. on the 96-deep well plate. The reaction mixture is split into two groups, a non-P450 and a P450 group. NADPH is only added to the reaction mixture of the P450 group. An aliquot of samples of P450 group is collected at 0, 10, 30, and 60 min time point, where 0 min time point indicated the time when NADPH is added into the reaction mixture of P450 group. An aliquot of samples of non-P450 group is collected at −10 and 65 min time point. Collected aliquots are extracted with acetonitrile solution containing an internal standard. The precipitated protein is spun down in centrifuge (2000 rpm, 15 min). The compound concentration in supernatant is measured by LC/MS/MS system.
The half-life value is obtained by plotting the natural logarithm of the peak area ratio of compounds/internal standard versus time. The slope of the line of best fit through the points yields the rate of metabolism (k). This is converted to a half-life value using following equations: […]

[3] = target: T1, VR1 (Homo sapiens, UniProt Q8NER1); assay: Calcium uptake assay, low pH (proton) agonist; format: cell-based; parameters: expressed in transfected cells; host or cells: T-REx HEK 293 (Invitrogen), pcDNA5/TO vector
Target sequence in this assay (Q8NER1 whole entry): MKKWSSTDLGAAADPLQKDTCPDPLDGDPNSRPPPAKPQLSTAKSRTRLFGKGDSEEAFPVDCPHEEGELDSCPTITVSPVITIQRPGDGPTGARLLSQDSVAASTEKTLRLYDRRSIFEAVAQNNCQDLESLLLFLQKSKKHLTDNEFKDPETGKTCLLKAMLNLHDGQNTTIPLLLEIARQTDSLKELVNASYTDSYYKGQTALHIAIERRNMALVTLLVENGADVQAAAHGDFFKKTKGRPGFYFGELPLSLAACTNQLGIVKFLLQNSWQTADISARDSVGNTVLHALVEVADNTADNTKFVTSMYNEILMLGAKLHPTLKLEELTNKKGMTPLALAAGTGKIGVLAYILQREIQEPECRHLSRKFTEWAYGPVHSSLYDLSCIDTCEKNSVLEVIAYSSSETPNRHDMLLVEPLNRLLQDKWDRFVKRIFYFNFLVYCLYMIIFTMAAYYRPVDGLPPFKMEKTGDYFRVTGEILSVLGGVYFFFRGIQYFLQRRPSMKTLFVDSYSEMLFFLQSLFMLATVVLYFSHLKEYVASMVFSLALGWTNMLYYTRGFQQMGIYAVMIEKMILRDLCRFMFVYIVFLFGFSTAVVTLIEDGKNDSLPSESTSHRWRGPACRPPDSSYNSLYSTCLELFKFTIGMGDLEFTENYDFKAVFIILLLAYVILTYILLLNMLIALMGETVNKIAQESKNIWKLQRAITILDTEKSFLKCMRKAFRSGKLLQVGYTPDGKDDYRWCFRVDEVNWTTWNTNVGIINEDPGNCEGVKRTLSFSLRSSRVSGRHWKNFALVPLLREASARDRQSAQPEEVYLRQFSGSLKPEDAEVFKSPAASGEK

[4] = target: T1, VR1; assay: Acid stimulation assay (FDSS 6000); format: cell-based; settings: final assay buffer pH5.8, 15 min pre-incubation
Procedure: The Acid-induced changes in the intracellular calcium concentration were monitored using FDSS 6000 (Hamamatsu Photonics, Japan), a fluorometric imaging system. The cell suspension in resting buffer (HBSS supplemented with 10 mM HEPES, pH 7.4) was pre-incubated with varying concentrations of the test compounds or resting buffer (buffer control) for 15 minutes at room temperature under dark conditions. The cells were automatically added the stimulating solution (HBSS supplemented with MES, final assay buffer pH5.8) by the FDSS 6000.
Target sequence in this assay (Q8NER1 whole entry, species assumed): as the sequence (Q8NER1 whole entry) above

[5] = HEK293, 0.3 μM compound, low pH (protons) as agonist, HEK 293 cells expressing hVR1, read-out: Low pH % Inhib. @ 0.3 μM

Row | Structure (SMILES) | bioavailability [1] [%] | clearance [1] [mL/min/kg] | half-life at 1 μM [2] [h] | inhibition at 0.3 µM [3, 5] [%] | IC50 [4] [µM] | inhibition at 0.3 µM ([3]; HEK293, read-out: Low pH % Inhib. @ 0.3 μM) [%]
1 | CC(=O)n1ccc2cc(NC(=O)c3ccc(/C=C/C(F)(F)F)cc3C)cnc21 [Compound 408, (E)-N-(1-acetyl-1H-pyrrolo[2,3-b]pyridin-5-yl]-2-methyl-4-(3,3,3-trifluoroprop-1-enyl)benzamide] |  |  |  |  | 0.061 | 91
2 | Cc1cc(/C=C/C(F)(F)F)ccc1C(=O)Nc1cnc2sc(CO)nc2c1 [Compound 413, (E)-N-(2-(hydroxymethyl)thiazolo[5,4-b]pyridin-6-yl)-2-methyl-4-(3,3,3-trifluoroprop-1-enyl)benzamide] | > 100 | 3.83 | 3.22 | 110 | 0.004 | 
3 | Cc1cc(/C=C/C(F)(F)F)ccc1C(=O)Nc1ccc2c(c1)C(O)CCC2 (stereo not shown) [Compound 307, (E)-N-(8-hydroxy-5,6,7,8-tetrahydronaphthylen-2-yl)-2-methyl-4-(3,3,3-trifluoroprop-1-enyl)benzamide] |  |  |  | 75 | 0.118 | 
4 | Cc1cc(/C=C/C(F)(F)F)ccc1C(=O)Nc1ccc2cc(C(O)CO)cnc2c1 (stereo not shown) [Compound 308, (E)-N-(3-(1,2-dihydroxyethyl)quinolin-7-yl)-2-methyl-4-(3,3,3-trifluoroprop-1-enyl)benzamide] | 71 | 12.2 | 1.05 | 101 | 0.011 | 
5 | CC(=O)c1nc2cc(NC(=O)c3ccc(/C=C/C(F)(F)F)cc3C)ccc2s1 [Compound 410, (E)-N-(2-acetylbenzo[d]thiazol-5-yl)-2-methyl-4-(3,3,3-trifluoroprop-1-enyl)benzamide] |  |  |  | 12 | 0.707 | 
6 | Cc1cc(/C=C/C(F)(F)F)ccc1C(=O)Nc1cccc2c1CC(O)CC2 (racemic) [Compound 309, (E)-N-(7-hydroxy-5,6,7,8-tetrahydronaphthylen-1-yl)-2-methyl-4-(3,3,3-trifluoroprop-1-enyl)benzamide] | 29 | 7.68 | 2.25 | 107 | 0.002 | 
7 | Cc1cc(/C=C/C(F)(F)F)ccc1C(=O)Nc1cccc2c1C[C@H](O)CC2 (single isomer, unassigned) [Compound 314] |  |  |  | 121 | 0.023 | 
8 | Cc1cc(/C=C/C(F)(F)F)ccc1C(=O)Nc1ccc2c(c1)N(C(=O)CO)CC2 [Compound 407, (E)-N-(1-(2-hydroxyacetyl)-indolin-yl)-2-methyl-4-(3,3,3-trifluoro-Prop-1-enyl)benzamide] |  |  |  | 95 | 0.032 | 
9 | CCC(=O)N1CCc2ccc(NC(=O)c3ccc(/C=C/C(F)(F)F)cc3C)cc21 [Compound 406, (E)-2-methyl-N-(1-propionylindoline-6-yl]-4-(3,3,3-trifluoro-prop-1-enyl)benzamide] |  |  |  | 45 | 0.323 | 

Further molecules by falling IC50 [4], results first:

Row | bioavailability [1] [%] | clearance [1] [mL/min/kg] | half-life at 1 μM [2] [h] | inhibition at 0.3 µM [3, 5] [%] | IC50 [4] [µM] | Structure (SMILES) | inhibition at 0.3 µM ([3]; HEK293, read-out: Low pH % Inhib. @ 0.3 μM) [%]
10 |  |  |  | 72.3 | 0.147 | Cc1cc(/C=C/C(F)(F)F)ccc1C(=O)Nc1ccc2nccnc2c1 [Compound 325, (E)-2-methyl-N-(Quinoxalin-6-yl)-4-(3,3,3-trifluoroprop-1-enyl)benzamide] | 
11 |  |  |  | 81 | 0.147 | Cc1cc(/C=C/C(F)(F)F)ccc1C(=O)Nc1ccc2sc(C(C)O)nc2c1 (stereo not shown) [Compound 403] | 
12 |  |  |  | 71 | 0.109 | Cc1cc(/C=C/C(F)(F)F)ccc1C(=O)Nc1cnc2c(c1)COC(CO)C2 (stereo not shown) [Compound 310, (E)-N-(7-hydroxymethyl-7,8-dihydro-5H-pyrano[4,3-b]pyridin-3-yl)-2-methyl-4-(3,3,3-trifluoroprop-1-enyl)benzamide] | 
13 |  |  |  | 97 | 0.103 | Cc1cc(/C=C/C(F)(F)F)ccc1C(=O)Nc1cnc2c(c1)CCCC2 [Compound 312] | 
14 |  |  |  | 88 | 0.094 | Cc1cc(/C=C/C(F)(F)F)ccc1C(=O)Nc1ccc2c(c1)N(S(C)(=O)=O)CC2 [Compound 401, (E)-N-(1-methanesulfonyl-2,3-dihydro-1H-indol-6-yl]-2-methyl-4-(3,3,3-trifluoroprop-1-enyl)benzamide] | 
15 |  |  |  | 103 | 0.059 | Cc1cc(/C=C/C(F)(F)F)ccc1C(=O)Nc1ccc2sc(C(C)(C)O)nc2c1 [Compound 409, (E)-N-(2-(2-hydroxypropan-2-yl)benzo[d]thiazol-5-yl)-2-methyl-4-(3,3,3-trifluoroprop-1-enyl)benzamide] | 
16 | > 100 | 11.3 | 0.96 | 90 | 0.037 | Cc1cc(/C=C/C(F)(F)F)ccc1C(=O)Nc1ccc2cc(C(C)(C)O)cnc2c1 [Compound 303, (E)-N-(3-(2-Hydroxypropan-2-yl)quinolin-7-yl)-2-methyl-4-(3,3,3-trifluoroprop-1-enyl)benzamide] | 
17 |  |  |  | 102 | 0.028 | Cc1cc(/C=C/C(F)(F)F)ccc1C(=O)Nc1ccc2oc(CO)nc2c1 [Compound 411, (E)-N-(2-(hydroxymethyl)benzo[d]oxazol-5-yl)-2-methyl-(3,3,3-trifluoroprop-1-enyl)benzamide] | 
18 | 11 | 7.17 | 0.81 | 105 | 0.02 | Cc1nc2cc(NC(=O)c3ccc(/C=C/C(F)(F)F)cc3C)cnc2s1 [Compound 412, (E)-2-methyl-N-(2-methylthiazolo[5,4-b]pyridin-6-yl)-4-(3,3,3-trifluoroprop-1-enyl)benzamide] | 
19 |  |  |  | 106 | 0.014 | Cc1cc(/C=C/C(F)(F)F)ccc1C(=O)Nc1cccc2c1C[C@@H](O)CC2 (single isomer, unassigned) [Compound 313] | 
20 | > 100 | 11.2 | 0.28 | 105 | 0.012 | Cc1cc(/C=C/C(F)(F)F)ccc1C(=O)Nc1ccc2cc(COCCO)cnc2c1 [Compound 305, (E)-N-(3-((2-Hydroxyethoxy)methyl)quinolin-7-yl)-2-methyl-4-(3,3,3-trifluoroprop-1-enyl)benzamide] | 
21 | 59 | 1.33 | 2.96 | 104 | 0.003 | Cc1cc(/C=C/C(F)(F)F)ccc1C(=O)Nc1cnc2cccnc2c1 [Compound 318, (E)-2-methyl-N-(1,5-naphthyridin-3-yl)-4-(3,3,3-trifluoroprop-1-enyl)benzamide] | 
22 | 2 | 67.3 | 0.61 |  | 0.001 | Cc1cc(/C=C/C(F)(F)F)ccc1C(=O)Nc1cccc2ccc(O)cc12 [Compound 302, (E)-N-(7-hydroxynaphthalen-1-yl)-2-methyl-4-(3,3,3-trifluoroprop-1-enyl)benzamide] | 
